In ChEMBL document CHEMBL6134910, “Discovery of a New Class of Orexin 2 Receptor Agonists as a Potential Treatment for Narcolepsy” (J Med Chem, 2025):

Columns and labels:
Cytochrome P450 3A4 = Cytochrome P450 3A4 (Homo sapiens, UniProt P08684); test: Inhibition of CYP3A4 in human liver microsome using testosterone as substrate incubated for 7 mins; type: ADME, microsomes
Cytochrome P450 2D6 = Cytochrome P450 2D6 (Homo sapiens, UniProt P10635); test: Inhibition of CYP2D6 in human liver microsome using dextrometorphan as substrate incubated for 30 mins by LC-MS/MS analysis; type: ADME, microsomes
[1] = biological target: T1, Orexin/Hypocretin receptor type 1 (Homo sapiens, UniProt O43613); test: Agonist activity at human OX1 receptor expressed in HEK293 cells assessed as IP-1 accumulation incubated for […] by HTRF IP-one Gq detection assay; type: functional, cell-based
T1 sequence (O43613 whole entry): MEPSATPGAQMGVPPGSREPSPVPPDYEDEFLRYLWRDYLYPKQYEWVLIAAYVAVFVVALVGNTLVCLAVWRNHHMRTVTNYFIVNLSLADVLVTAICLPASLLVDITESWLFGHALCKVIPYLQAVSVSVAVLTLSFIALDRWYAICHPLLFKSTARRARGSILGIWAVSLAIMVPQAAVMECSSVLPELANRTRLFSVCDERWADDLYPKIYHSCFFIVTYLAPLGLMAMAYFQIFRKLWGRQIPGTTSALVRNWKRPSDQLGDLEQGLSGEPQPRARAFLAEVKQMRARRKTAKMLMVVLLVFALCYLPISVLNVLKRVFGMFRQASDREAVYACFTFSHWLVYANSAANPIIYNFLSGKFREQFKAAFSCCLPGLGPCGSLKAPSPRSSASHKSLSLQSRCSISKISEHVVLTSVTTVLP

Cytochrome P450 2C9 = Cytochrome P450 2C9 (Homo sapiens, UniProt P11712); test: Inhibition of CYP2C9 in human liver microsome using diclofenac as substrate incubated for 6 mins by LC-MS/MS analysis; type: ADME, microsomes
Orexin receptor type 2 = biological target: T2, Orexin receptor type 2 (Homo sapiens, UniProt O43614); test: Agonist activity at human OX2 receptor expressed in HEK293 cells assessed as IP-1 accumulation incubated for […] by HTRF IP-one Gq detection assay; type: functional, cell-based
T2 sequence (O43614 whole entry): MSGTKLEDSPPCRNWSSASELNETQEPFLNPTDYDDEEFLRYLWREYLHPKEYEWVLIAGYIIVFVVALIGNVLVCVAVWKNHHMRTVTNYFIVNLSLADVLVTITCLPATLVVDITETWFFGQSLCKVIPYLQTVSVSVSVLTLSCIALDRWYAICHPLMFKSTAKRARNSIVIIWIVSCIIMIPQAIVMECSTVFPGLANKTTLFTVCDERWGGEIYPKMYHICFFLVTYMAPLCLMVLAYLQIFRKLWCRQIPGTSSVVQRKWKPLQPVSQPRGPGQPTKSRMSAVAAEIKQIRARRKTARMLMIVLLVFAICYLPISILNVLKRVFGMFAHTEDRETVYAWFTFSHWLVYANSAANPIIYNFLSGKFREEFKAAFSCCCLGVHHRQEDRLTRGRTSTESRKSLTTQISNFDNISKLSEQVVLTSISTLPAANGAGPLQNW

Chain of Cytochrome P450 3A4 (P08684 whole entry): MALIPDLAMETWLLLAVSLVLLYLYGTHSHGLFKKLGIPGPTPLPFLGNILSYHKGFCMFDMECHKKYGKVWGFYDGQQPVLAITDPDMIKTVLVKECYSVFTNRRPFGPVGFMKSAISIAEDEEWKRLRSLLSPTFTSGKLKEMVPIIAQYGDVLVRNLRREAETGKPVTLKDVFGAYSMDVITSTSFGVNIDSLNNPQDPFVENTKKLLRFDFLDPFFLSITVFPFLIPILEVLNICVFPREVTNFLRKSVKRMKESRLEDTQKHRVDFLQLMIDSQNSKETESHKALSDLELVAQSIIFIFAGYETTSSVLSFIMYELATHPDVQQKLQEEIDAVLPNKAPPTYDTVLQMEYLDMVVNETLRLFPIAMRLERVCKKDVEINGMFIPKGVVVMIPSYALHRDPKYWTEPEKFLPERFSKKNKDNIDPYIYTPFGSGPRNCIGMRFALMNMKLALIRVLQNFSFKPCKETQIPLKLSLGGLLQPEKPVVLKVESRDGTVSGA
Chain of Cytochrome P450 2D6 (P10635 whole entry): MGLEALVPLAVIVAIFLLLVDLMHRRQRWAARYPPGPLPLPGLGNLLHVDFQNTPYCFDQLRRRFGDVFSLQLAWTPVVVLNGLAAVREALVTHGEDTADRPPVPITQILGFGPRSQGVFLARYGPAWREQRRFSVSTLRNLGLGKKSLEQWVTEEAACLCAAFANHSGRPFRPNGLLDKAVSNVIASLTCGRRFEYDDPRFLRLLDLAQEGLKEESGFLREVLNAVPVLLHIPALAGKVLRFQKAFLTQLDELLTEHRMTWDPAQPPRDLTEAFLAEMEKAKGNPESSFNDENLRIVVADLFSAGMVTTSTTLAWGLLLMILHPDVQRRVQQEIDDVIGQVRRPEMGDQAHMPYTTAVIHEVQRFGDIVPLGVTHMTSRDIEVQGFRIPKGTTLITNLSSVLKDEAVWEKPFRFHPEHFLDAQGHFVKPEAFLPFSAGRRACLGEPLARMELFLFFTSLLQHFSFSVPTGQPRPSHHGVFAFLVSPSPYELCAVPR
Chain of Cytochrome P450 2C9 (P11712 whole entry): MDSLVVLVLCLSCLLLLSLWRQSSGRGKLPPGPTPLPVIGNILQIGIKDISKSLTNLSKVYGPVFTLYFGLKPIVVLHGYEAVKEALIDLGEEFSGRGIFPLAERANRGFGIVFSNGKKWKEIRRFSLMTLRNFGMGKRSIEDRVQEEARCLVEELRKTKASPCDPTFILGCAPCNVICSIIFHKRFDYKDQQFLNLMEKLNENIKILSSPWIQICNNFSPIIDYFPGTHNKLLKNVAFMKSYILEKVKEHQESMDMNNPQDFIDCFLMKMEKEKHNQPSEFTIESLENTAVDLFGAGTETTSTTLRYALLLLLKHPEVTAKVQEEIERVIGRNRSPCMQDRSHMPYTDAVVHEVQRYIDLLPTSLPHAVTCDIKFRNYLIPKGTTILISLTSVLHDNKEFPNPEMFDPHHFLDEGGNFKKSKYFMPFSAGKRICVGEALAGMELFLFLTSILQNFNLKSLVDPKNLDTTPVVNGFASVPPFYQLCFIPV

Row | Structure (SMILES) | IC50 (Cytochrome P450 3A4) | also measured
1 | O=C(NC1CCCCC1)[C@@H](c1ccccc1)N(C[C@H]1CCCO1)C(=O)Cn1cnc2ccccc21 | 10 µM | 
2 | Cn1nnc(-c2oncc2CC(=O)N(C2CC3(CC3)C2)[C@@H](C(=O)NC23CC(C)(C2)C3)c2cc(F)ccc2F)n1 |  | IC50 (Cytochrome P450 2D6): 20 µM; EC50 [1]: > 20 µM; IC50 (Cytochrome P450 2C9): 24 µM
3 | Cn1ncc(CC(=O)N(C2CCCC2)[C@@H](C(=O)NC23CC(C)(C2)C3)c2ccccc2)c1-c1cccnc1 | 7.6 µM | 
4 | Cn1ncc(CC(=O)N(C2CCCC2)C(C(=O)NC23CC(C)(C2)C3)c2ccccc2)c1-c1ncccn1 (centres undefined) | 6.8 µM | 
5 | CC12CC(NC(=O)[C@@H](c3ccccc3)N(C(=O)Cn3cnc(Cl)c3-c3ccccc3)C3CCCC3)(C1)C2 | 18 µM | 
6 | Cc1ncn(CC(=O)N(C2CCCC2)[C@@H](C(=O)NC23CC(C)(C2)C3)c2ccccc2)c1-c1ccccc1 | 7.3 µM | 
7 | Cn1ncc(CC(=O)N(C2CCCC2)C(C(=O)NC23CC(C)(C2)C3)c2ccccc2)c1-c1c(F)cccc1F (centres undefined) | 7 µM | 
8 | Cn1ncc(CC(=O)N(C2CCCC2)C(C(=O)NC23CC(C)(C2)C3)C2CCCC2)c1-c1ccccc1 (centres undefined) |  | EC50 (Orexin receptor type 2): > 20 µM
9 | Cc1ncn(CC(=O)N(C[C@H]2CCCO2)[C@@H](C(=O)NC2CCCCC2)c2ccccc2)c1-c1ccccc1 | 7.3 µM | 
10 | Cn1nnc(-c2c(CC(=O)N(C3CC4(CC4)C3)[C@@H](C(=O)NC34CC(C)(C3)C4)c3ccccc3Cl)cnn2C)n1 |  | IC50 (Cytochrome P450 2D6): 5.3 µM; EC50 [1]: > 20 µM; IC50 (Cytochrome P450 2C9): 20 µM
11 | Cn1nnc(-c2c(CC(=O)N(C3CCCC3)C(C(=O)NC34CC(C)(C3)C4)c3ccccc3)cnn2C)n1 (centres undefined) | 12 µM | 

Further lines, with some results ahead:

Row | IC50 (Cytochrome P450 3A4) | Structure (SMILES) | also measured
12 | 5 µM | Cn1ncc(CC(=O)N(C2CCCC2)[C@@H](C(=O)NC23CC(C)(C2)C3)c2ccccc2)c1-c1ccccc1 | 
13 | 2 µM | CC12CC(NC(=O)[C@@H](c3ccccc3)N(C(=O)Cc3cnn(C(F)F)c3-c3ccccc3)C3CCCC3)(C1)C2 | 
14 | 1.5 µM | COc1cccc(-c2c(CC(=O)N(C3CCCC3)C(C(=O)NC34CC(C)(C3)C4)c3ccccc3)cnn2C)c1 (centres undefined) | 
15 | 4 µM | Cn1ncc(CC(=O)N(C2CCCC2)[C@@H](C(=O)NC23CC(C)(C2)C3)c2ccccc2)c1-n1nccn1 | 
16 | 0.3 µM | CC(C)N(C(=O)Cc1cnn(C)c1-c1ccccc1)[C@@H](C(=O)NC12CC(C)(C1)C2)c1cc(F)ccc1F | 
17 | 1.4 µM | Cc1nsc(CC(=O)N(C2CCCC2)[C@@H](C(=O)NC23CC(C)(C2)C3)c2ccccc2)c1-c1ccccc1 | 
18 | 1 µM | CC(C)N(C(=O)Cc1cnn(C)c1-c1ccccc1)[C@@H](c1cn(C23CC(C)(C2)C3)nn1)c1cc(F)ccc1F | 
19 | 0.9 µM | COc1cccc(-c2c(CC(=O)N(C3CCCC3)C(C(=O)NC34CC(C)(C3)C4)c3ccccc3)cnn2C)c1F (centres undefined) | 
20 | 1.6 µM | Cn1ncc(CC(=O)N(C2CCCC2)C(C(=O)NC23CC(C)(C2)C3)c2ccccc2)c1-c1ccc(F)cc1F (centres undefined) | 
21 | 1.6 µM | CC12CC(NC(=O)[C@@H](c3ccccc3)N(C(=O)Cc3cnnn3-c3ccccc3)C3CCCC3)(C1)C2 | 
22 | 2.5 µM | Cn1ccc(-c2c(CC(=O)N(C3CCCC3)C(C(=O)NC34CC(C)(C3)C4)c3ccccc3)cnn2C)n1 (centres undefined) | 
23 | 1.9 µM | CC12CC(NC(=O)[C@@H](c3ccccc3)N(C(=O)Cc3cnoc3-c3ccccc3)C3CCCC3)(C1)C2 | 
24 | 4.2 µM | Cn1ncc(CC(=O)N(C2CCCC2)C(C(=O)NC23CC(C)(C2)C3)c2ccccc2)c1-c1coc(C2CC2)n1 (centres undefined) | 
25 | 0.25 µM | O=C(NC1CCCCC1)[C@@H](c1ccccc1)N(C[C@H]1CCCO1)C(=O)Cn1cncc1-c1ccccc1 | 
